In patent publication US6391304B1, “Peptides derived from the ENV gene of the feline immunodeficiency virus and their applications” (Centre National de la Recherche Scientifique, priority 1997, dated 2002):
Ends that are not written are not given here.

Tests used:
SU2 envelope peptide = assay: Seroconversion ELISA after the virulence test, SU2 peptide; type: in vivo, cats
Experimental: The cats are subjected to a virulence test, one week after the final immunization, by means of an intraperitoneal inoculation of 10 CID50 of FIV Wo isolate, one CID50 corresponding to the dose capable of infecting 50% of the cats.
The production on of antibodies is evaluated before the test by means of an ELISA using an immobilized peptide (SU2, SU5, TM2 or TM3-19) and immunoprecipitation. After the test, the seroconversion is monitored by an ELISA using immobilized envelope peptides and a recombinant FTV capsid protein.
The ELISA with the immobilized envelope peptides corresponding to the immunogenic domains SU2 and TM2 and with the immobilized recombinant p25 protein (FIV capsid protein) is carried out as described in Avraméas A. et al. (Res. Virol., 1993, 144, 209-218).
Microplates (Immunolon II, Dynatech) are coated with 0.5 μg/well for the peptides and with 0.1 μg/well for the p25 protein.
The tests are carried out in duplicate and the results are expressed as average values.
After the test, the seroconversion against the envelope peptides and the p25 protein is evaluated at serum dilutions of 1/25 and 1/100, respectively.
The absorbance values (at 405 nm) are corrected by subtraction of the absorbance values obtained by binding with an immobilized control peptide.
The tests are normalized with reference to the binding of a mixture of serum from cats infected with FIV with a peptide representing the immunodominant domain of the FIV transmembrane glycoprotein (TM2) (Avraméas A. et al., Res. Virol., 1993, 144, 209-218).

FIV Wo isolate = assay: Viral load in the tissues by competitive RT-PCR; type: in vivo, cats; conditions: 5 weeks after the test, FIG. 4
Text: The cats are sacrificed five weeks after the virulence test. The lymphoid organs (spleen, thymus, axial lymphatic ganglia) are recovered and frozen in liquid nitrogen, for extraction of the RNA.
Frozen spleen and thymus tissues are reduced to powder and immediately dispersed in the lysis buffer provided with the RNA extraction kit (RNeasy, Qiagene), with the aid of a tissue homogenizer (Ultra-Turrax). The frozen axillary lymphatic ganglia are dispersed directly in the lysis buffer; the RNA is then extracted using the RNeasy kit, according to the manufacturer's instructions.
The contaminant DNA is removed by hydrolysis with DNase 1 (RQ1. RNase-free DNase, Promega).
The viral load in the tissues is evaluated 5 weeks after the test by counting the number of copies of viral RNA in the axillary lymphatic ganglia and in the thymus by competitive RT-PCR.
Given that the amplified fragment (amplicon) is located in the intron of the sub-genomic viral RNA, the copies of viral RNA counted in the tissues represent the complete transcripts, which are either intracellular or encapsidated in the extracellular viral particles.

[1] = test system: envelope glycoproteins of the Wo strain; assay: Immunoprecipitation of envelope glycoproteins by sera (infected PBM cells); type: in vivo; conditions: PBM cell lysates after acute infection with FIV Wo; group of four cats
Text: (§1) The sera collected on the day of the test (at a dilution of 1/40) are used to immunoprecipitate the envelope glycoproteins derived from the metabolically labelled FL-4 cells and feline mononuclear cells (PBM cells) infected with the FIV Wo strain, as described in G. Pancino et al. (Virology, 1995, 206, 796-806).
Given that the TM3-19 peptide, deduced from the Env sequence of the FIV Wo strain, comprises 4 different residues out of 19, relative to the Petaluma sequence, the capacity to immunoprecipitate sera before the test of the cats immunized with the TM3-19 peptide was tested against the envelope glycoproteins of the Wo strain, obtained from PBM cell lysates after acute infection with the FIV Wo strain.

[2] = test system: envelope glycoproteins of the Petaluma strain; assay: Immunoprecipitation of envelope glycoproteins by sera (metabolically labelled FL-4 cells); type: in vivo, FIV; conditions: lysates of chronically infected FL-4 cells; groups of four cats
Text: as §1
The recognition of the envelope glycoproteins is estimated by immunoprecipitation of the biosynthetically labelled envelope glycoprotein with sera collected on the day of the test, as summarized in Table I.

[3] = ELISA, seral dilution 1/25, individual cats

| Substance | antibody response with respect to the SU2 peptide (SU2 envelope peptide; 5 weeks after the test) | Binding of the sera to SU2, 3 weeks after the virulence test (SU2 envelope peptide; [3]) | Binding of the sera to SU2, 4 weeks after the virulence test (SU2 envelope peptide; [3]) | Binding of the sera to SU2, 5 weeks after the virulence test (SU2 envelope peptide; [3]) | level of viral RNA in the spleen (FIV Wo isolate) | levels of viral RNA in the axillary lymphatic ganglia (FIV Wo isolate) | cats whose sera precipitate the envelope protein of the Wo strain [1] | cats whose sera immunoprecipitate the envelope glycoproteins of the Petaluma strain [2] |
| --- | --- | --- | --- | --- | --- | --- | --- | --- |
| KKGLQQLQEWEDWVGWIGN [TM3-19, 19-amino-acid fragment of the TM3 domain of the FIV Wo Env transmembrane glycoprotein (759-777)] | none of the cats immunized with the TM3-19 peptide developed a detectable antibody response | 0 optical density | 0 optical density | 0 optical density | particularly low in one cat (348) | lower in three cats (346, 348 and 349) | only the sera of 2 cats (346, 347) |  |
| SU2: peptide of the SU2 domain of the FIV surface envelope glycoprotein, SEQ ID NO: 2, used as immunogen (RAISSWKQRNRWEWRPD) |  |  |  |  |  |  |  | 3 of the 4 cats (324, 325 and 327) |
